Data as given in patent US10888505B2, “Dosage of foam for delivering consumer desired dosage volume, surfactant amount, and scalp health agent amount in an optimal formulation space” (The Procter & Gamble Company, priority 2016, dated 2021).
Read-outs that look alike come from different tables or passages of the source.

Test system: Malassezia furfur
Conditions: inhibition of growth of the Malassezia fungus
Protocol: Malassezia furfur is grown in a flask containing mDixon medium (see E. Gueho, et. al. Antoninie Leeuwenhock (1996), no. 69, 337-55, which description is incorporated by reference herein). Dilutions of solubilized anti-microbial active or diluted products are then added to test tubes containing molten mDixon agar. M. furfur inoculum is added to each tube of molten agar, the tube vortexed, and the contents poured into separate sterile petri dishes. After the plates are incubated, they are observed for visible M. furfur growth. The lowest tested dilution of anti-microbial active or finished product that comprises that yields no growth is defined as the Minimal Inhibitory Concentration (MIC).

[O-]n1ccccc1=S.[O-]n1ccccc1=S.[Zn+2] [ZPT, zinc salt of 1-hydroxy-2-pyridinethione]
Minimum Inhibitory Concentration (MIC) (parts active per million parts product and dilution media): 5 ppm | Minimum Inhibitory Concentration (MIC) (same MIC expressed as g active per 100 g (product + dilution solution)): 0.0005 g/100 g
